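Each compound was tested at five concentrations against cells in 96-well plates for 48 hours. GI50 is the concentration that inhibits growth by half. At the TGI there is no net growth.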
Legend:
Assay in all cases: growth of human tumour cells (NCI), 48 h
HOP-62 NSCLC = system: HOP-62 NSCLC
HT29 colon = system: HT29 colon
LOX IMVI melanoma = system: LOX IMVI melanoma
MDA-MB-435 = system: MDA-MB-435
NCI-H23 lung = system: NCI-H23 lung
OVCAR-4 ovarian = system: OVCAR-4 ovarian
SF-268 CNS = system: SF-268 CNS
SN12C renal = system: SN12C renal
T-47D breast = system: T-47D breast
UACC-62 melanoma = system: UACC-62 melanoma

| Compound | GI50 (HOP-62 NSCLC) | TGI (HOP-62 NSCLC) | GI50 (HT29 colon) | TGI (HT29 colon) | GI50 (LOX IMVI melanoma) | TGI (LOX IMVI melanoma) | GI50 (MDA-MB-435) | TGI (MDA-MB-435) | GI50 (NCI-H23 lung) | TGI (NCI-H23 lung) | GI50 (OVCAR-4 ovarian) | TGI (OVCAR-4 ovarian) | GI50 (SF-268 CNS) | TGI (SF-268 CNS) | GI50 (SN12C renal) | TGI (SN12C renal) | GI50 (T-47D breast) | TGI (T-47D breast) | GI50 (UACC-62 melanoma) | TGI (UACC-62 melanoma) |
| --- | --- | --- | --- | --- | --- | --- | --- | --- | --- | --- | --- | --- | --- | --- | --- | --- | --- | --- | --- | --- |
| O=C(CCCCCCNC(=O)c1cnc(N(c2ccccc2)c2ccccc2)nc1)NO | 3.46 µM | 28.1 µM | 2.29 µM | > 35.4 µM | 2.15 µM | 11.4 µM | 2.04 µM | > 36.8 µM | 3.97 µM | 38.6 µM | 5.56 µM | 72.9 µM | 3.77 µM | 33.2 µM | 3.85 µM | 62.4 µM | 0.907 µM | 5.83 µM | 1.21 µM | 4.42 µM |
| COc1cccc(N2CCN(CC(=O)N3CCN(c4nnc(-c5ccc(Cl)cc5)c(-c5ccc(Cl)cc5)n4)CC3)CC2)c1 | 32.1 µM | > 100 µM | 6.47 µM | > 100 µM | 21.3 µM | > 100 µM | 9.26 µM | > 100 µM | 33.6 µM | > 100 µM | 25.3 µM | > 100 µM | > 100 µM | > 100 µM | 23.1 µM | > 100 µM | 3.73 µM | 47.6 µM | 31.3 µM | > 100 µM |
| COc1ccc(C(=S)N2CCN(c3cccc(C)c3)CC2)cc1OC | 5.53 µM | 29.4 µM | 3.3 µM | > 100 µM | 5.46 µM | > 100 µM | 1.09 µM | 4.04 µM | 9.08 µM | > 100 µM | 57.7 µM | > 100 µM | 6.18 µM | 86.8 µM | 6.85 µM | > 100 µM | 4.33 µM | > 100 µM | 4.1 µM | > 100 µM |
| O=c1[nH]c(=O)c2cn[nH]c2[nH]1 | > 100 µM | > 100 µM | > 100 µM | > 100 µM | > 100 µM | > 100 µM | > 100 µM | > 100 µM | > 100 µM | > 100 µM | > 100 µM | > 100 µM | > 100 µM | > 100 µM | > 100 µM | > 100 µM | > 100 µM | > 100 µM | > 100 µM | > 100 µM |
| O=C(c1ccccc1)c1ccccc1-c1ccccc1 | 5.38 µM | > 100 µM | 0.986 µM | 14.3 µM | 5.96 µM | > 100 µM | 0.325 µM | 7.87 µM | 4.46 µM | > 100 µM | 18.7 µM | > 100 µM | 6.55 µM | > 100 µM | 8.46 µM | > 100 µM | 6.08 µM | > 100 µM | 4.43 µM | > 100 µM |
| CCN(Cc1cc(Nc2nc(C)cn3c(-c4cn[nH]c4)cnc23)sn1)C(C)(C)CO | 0.0411 µM | 0.688 µM | 0.0725 µM | 0.812 µM | < 0.0125 µM | 0.199 µM | 0.0826 µM | 1.31 µM | 0.191 µM | 7.09 µM | < 0.0108 µM | 8.38 µM | 0.0376 µM | 1.87 µM | 0.0301 µM | 10.5 µM | 0.0689 µM | 18.5 µM | 0.0387 µM | 12.8 µM |
| COc1cc(/C=C\c2cc(OC)c(OC)c(OC)c2)cc(NC(=O)/C=C/c2cc(OC)c(OC)c(OC)c2)c1OC | 7.21 µM | > 100 µM | 3.87 µM | > 100 µM | 4.51 µM | > 100 µM | 1.54 µM | 4.84 µM | 5.27 µM | > 100 µM | 3.86 µM | > 100 µM | > 100 µM | > 100 µM | 27.6 µM | > 100 µM | 3.11 µM | > 100 µM | 2.19 µM | > 100 µM |
| C=C1C(=O)O[C@H]2[C@H]1CC/C(CNC(=O)/C=C/c1cc(OC)c(OC)c(OC)c1)=C\CC[C@@]1(C)O[C@@H]21 | 5.29 µM | 21.9 µM | 1.59 µM | 8.31 µM | 1.28 µM | 2.63 µM | 2.33 µM | 13.5 µM | 1.58 µM | 3.58 µM | 1.51 µM | 10.5 µM | 3.59 µM | 15.6 µM | 3.46 µM | 14.3 µM | 2.25 µM | 14.8 µM | 0.73 µM | 2.92 µM |
| COc1cc(C(O)CCBr)c(OC)cc1C (stereo not given) | – | > 93.5 µM | – | > 58.3 µM | – | > 100 µM | – | > 42.6 µM | – | > 100 µM | – | > 100 µM | – | > 100 µM | – | > 100 µM | – | > 100 µM | – | 50.8 µM |
| C=C(C)[C@@H]1CC[C@]2(C)CC[C@]3(C)[C@H](CC[C@@H]4[C@@]5(C)CC[C@H](O)C(C)(C)[C@@H]5CC[C@]43C)[C@@H]12 | – | > 100 µM | – | > 100 µM | – | 36.3 µM | – | 40.4 µM | – | > 100 µM | – | > 100 µM | – | > 100 µM | – | > 100 µM | – | > 100 µM | – | > 100 µM |
| Oc1c(-c2nnc(-c3ccccc3Cl)o2)sc2nnc(-c3ccccc3)c(-c3ccccc3)c12 | 4.99 µM | > 100 µM | 4.06 µM | 20.8 µM | 2.55 µM | 21.8 µM | 4.26 µM | > 100 µM | 4.87 µM | > 100 µM | 4.49 µM | > 100 µM | 6.27 µM | > 100 µM | 4.29 µM | 90.5 µM | 4.78 µM | > 100 µM | 2.64 µM | 9.49 µM |
| CN(Cc1ccccc1)C(=NC#N)N(Cc1ccccc1)Cc1ccccc1 | – | 84.8 µM | – | 36.3 µM | – | 35 µM | – | 33.7 µM | – | 64 µM | – | > 93 µM | – | > 100 µM | – | > 92.9 µM | – | > 100 µM | – | 55.6 µM |
| O=C1C(Cl)=C(Nc2cccc(Cl)c2)C(=O)N1Cc1ccc(Cl)cc1 | 1.53 µM | 13.9 µM | 0.758 µM | 31.3 µM | 0.408 µM | 8.49 µM | 0.396 µM | 2.91 µM | 0.378 µM | 2.12 µM | 4.68 µM | > 64.2 µM | 1.41 µM | 19.3 µM | 1.24 µM | 5.93 µM | 3.38 µM | 34 µM | 0.779 µM | 4.68 µM |
